Legend:
Assay type in all cases: cell-based
[1] = target: T1, EGFR L858R (Ba/F3 cells) (Homo sapiens, UniProt P00533, L858R); assay: Inhibitor activity on EGFR-dependent cell growth (CellTiter-Glo, 72 h), Ba/F3 EGFR L858R; conditions: read-out: BaF3 L858R IC50
T1 construct: expressed in transfected cells; host or cells: Ba/F3 (murine pro-B cells), retroviral transduction, puromycin selection, IL3-independent pool
In short: (§1)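 Ba/F3, retrovirally transduced, puromycin-selected, grown without IL3; cells/well: L858R 400, L858R/C797S 600, exon 19del 800, FQEA 800. Cpds from 10 mM DMSO stock, 3-fold ×10 dilution, 120 nL per well; 72 h. CTG readout; IC50 via Hill equation.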

[2] = target: T2, EGFR exon 20 SVD Ins D770_N771 (Ba/F3 cells) (Homo sapiens, UniProt P00533, INS770SVD); assay: Inhibitor activity on EGFR-dependent cell growth (CellTiter-Glo, 72 h), Ba/F3 EGFR exon 20 SVD Ins; conditions: read-out: BaF3 SVD IC50
T2 construct: expressed in transfected cells; host or cells: Ba/F3 (murine pro-B cells), retroviral transduction, puromycin selection, IL3-independent pool
T2 sequence (P00533 with tags, fused parts or gaps INS770SVD): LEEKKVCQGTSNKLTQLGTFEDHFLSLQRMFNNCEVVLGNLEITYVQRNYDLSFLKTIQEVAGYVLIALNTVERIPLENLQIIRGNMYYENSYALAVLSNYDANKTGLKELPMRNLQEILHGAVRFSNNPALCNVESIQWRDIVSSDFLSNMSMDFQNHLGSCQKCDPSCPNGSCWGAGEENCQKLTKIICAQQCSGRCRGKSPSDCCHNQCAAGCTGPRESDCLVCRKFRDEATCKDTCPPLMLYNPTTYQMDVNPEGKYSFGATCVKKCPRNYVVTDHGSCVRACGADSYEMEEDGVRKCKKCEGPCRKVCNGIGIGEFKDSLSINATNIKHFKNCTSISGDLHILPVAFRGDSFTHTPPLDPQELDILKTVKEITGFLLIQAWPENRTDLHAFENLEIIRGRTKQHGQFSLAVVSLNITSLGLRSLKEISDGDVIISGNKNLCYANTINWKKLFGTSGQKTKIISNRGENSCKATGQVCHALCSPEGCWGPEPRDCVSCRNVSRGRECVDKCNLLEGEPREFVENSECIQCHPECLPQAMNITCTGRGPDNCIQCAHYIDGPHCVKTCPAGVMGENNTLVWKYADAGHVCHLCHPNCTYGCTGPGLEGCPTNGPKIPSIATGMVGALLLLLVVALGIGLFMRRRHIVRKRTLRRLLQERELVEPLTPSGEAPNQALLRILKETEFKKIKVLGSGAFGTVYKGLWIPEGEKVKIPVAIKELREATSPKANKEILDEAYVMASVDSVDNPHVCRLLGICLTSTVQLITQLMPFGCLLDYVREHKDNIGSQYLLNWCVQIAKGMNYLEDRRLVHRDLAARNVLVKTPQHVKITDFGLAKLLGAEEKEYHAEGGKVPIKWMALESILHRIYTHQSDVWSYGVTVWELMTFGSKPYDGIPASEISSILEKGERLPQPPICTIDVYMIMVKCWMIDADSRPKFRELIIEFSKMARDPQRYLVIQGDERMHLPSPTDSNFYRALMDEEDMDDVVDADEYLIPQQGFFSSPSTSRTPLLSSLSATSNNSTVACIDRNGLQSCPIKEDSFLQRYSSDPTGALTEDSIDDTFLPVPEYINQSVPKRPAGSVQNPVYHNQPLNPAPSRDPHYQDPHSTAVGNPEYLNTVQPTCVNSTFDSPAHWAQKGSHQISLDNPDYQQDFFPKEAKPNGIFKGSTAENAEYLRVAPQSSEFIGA
In short: (§2)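 IC50s derive from a sigmoidal dose–response fit of CellTiter-Glo signal. The signal was normalised between […]-treated cells and cell-free medium. Ba/F3 mutant-EGFR cells, seeded at 400–800/well depending on the line, had 72 h of exposure to a 10-point, 3-fold compound series.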

[3] = target: T3, EGFR L858R/C797S (Ba/F3 cells) (Homo sapiens, UniProt P00533, C797S/L858R); assay: Inhibitor activity on EGFR-dependent cell growth (CellTiter-Glo, 72 h), Ba/F3 EGFR L858R/C797S; conditions: read-out: BaF3 L858R/C797S IC50
T3 construct: expressed in transfected cells; host or cells: Ba/F3 (murine pro-B cells), retroviral transduction, puromycin selection, IL3-independent pool
T3 sequence (P00533 25-1210 C797S/L858R): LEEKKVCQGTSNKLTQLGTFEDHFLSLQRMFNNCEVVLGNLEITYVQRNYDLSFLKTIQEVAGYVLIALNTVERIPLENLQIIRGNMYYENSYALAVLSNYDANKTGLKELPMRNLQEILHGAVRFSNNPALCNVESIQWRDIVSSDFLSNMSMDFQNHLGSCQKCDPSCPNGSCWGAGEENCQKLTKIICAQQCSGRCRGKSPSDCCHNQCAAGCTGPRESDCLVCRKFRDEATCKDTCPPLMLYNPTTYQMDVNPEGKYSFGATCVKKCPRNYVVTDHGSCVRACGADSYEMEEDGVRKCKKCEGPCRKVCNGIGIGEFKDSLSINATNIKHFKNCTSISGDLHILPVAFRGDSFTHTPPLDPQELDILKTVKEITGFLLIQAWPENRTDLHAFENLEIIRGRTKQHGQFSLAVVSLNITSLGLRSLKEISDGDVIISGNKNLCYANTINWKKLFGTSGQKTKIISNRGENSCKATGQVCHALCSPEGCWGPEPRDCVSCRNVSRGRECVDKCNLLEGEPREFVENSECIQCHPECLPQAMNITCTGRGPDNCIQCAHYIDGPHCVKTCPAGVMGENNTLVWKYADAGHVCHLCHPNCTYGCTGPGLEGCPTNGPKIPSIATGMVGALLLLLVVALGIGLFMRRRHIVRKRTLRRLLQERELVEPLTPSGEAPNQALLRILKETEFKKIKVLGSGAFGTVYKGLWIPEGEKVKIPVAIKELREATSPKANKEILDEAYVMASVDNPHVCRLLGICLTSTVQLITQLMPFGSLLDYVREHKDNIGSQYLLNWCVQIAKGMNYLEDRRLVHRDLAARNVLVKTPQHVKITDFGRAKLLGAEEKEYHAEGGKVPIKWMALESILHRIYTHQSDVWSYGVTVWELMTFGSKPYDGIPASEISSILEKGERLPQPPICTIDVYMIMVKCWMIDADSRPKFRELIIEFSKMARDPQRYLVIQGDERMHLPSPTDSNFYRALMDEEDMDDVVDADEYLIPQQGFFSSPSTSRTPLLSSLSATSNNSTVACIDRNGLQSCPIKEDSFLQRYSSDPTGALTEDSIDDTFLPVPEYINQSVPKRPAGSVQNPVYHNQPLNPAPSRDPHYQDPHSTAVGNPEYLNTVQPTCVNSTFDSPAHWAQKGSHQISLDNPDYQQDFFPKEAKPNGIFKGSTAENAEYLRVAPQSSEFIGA
Source text: Example A. Inhibitor Activity on EGFR-Dependent Cell Growth
Cell lines are generated by transducing Ba/F3 cells with retroviruses containing vectors with EGFR WT, EGFR L858R, EGFR exon 19del, EGFR L858R/C797S, EGFR exon 20 NPG Ins D770_N771, EGFR exon 20 ASV Ins V769_D770, EGFR exon 20 SVD Ins D770_N771, or EGFR exon 20 FQEA Ins A763_V764 genes and a puromycin selection marker. Transduced cells are selected with puromycin for 7 days and are then be transferred into culture media without Interleukin 3 (IL3). EGFR WT cells are maintained with supplemental EGF. Surviving cells are confirmed to express EGFR by Western blot and maintained as a pool. The IC50 date were included in Table 6 and Table 7.
(§3) 1.1 Cells are harvested from flask into cell culture medium and the cell number counted.
1.2 Cells are diluted with culture medium to the desired density and 40 μL of cell suspension is added into each well of 384-well cell culture plate and the seeding density is 800 (FQEA, exon 19del), 600 (WT, NPG, L858R/C797S), or 400 (ASV, SVD, L858R) cells/well.
(§4) 2 Compound Preparation and Treatment
(§5) 2.1 Test compounds are dissolved to 10 mM in a DMSO stock solution. 45 μL of stock solution is transferred to a 384 polypropylene plate (pp-plate). Perform 3-fold, 10-point dilution via transferring 15 μL compound into 30 μL DMSO using a TECAN (EVO200) liquid handler.
(§6) 2.2 Spin plates at room temperature at 1,000 RPM for 1 minute.
2.3 Transfer 120 nL of diluted compound from compound source plate into the cell plate.
2.4 After compound treatment for 72 hours, perform CTG detection for compound treatment plates as described in “Detection” section.
3.1 Plates are removed from incubators and equilibrated at room temperature for 15 minutes.
3.2 Thaw the CellTiter Glo reagents and allow to equilibrate to room temperature before the experiment.
3.3 Add 40 μL of CellTiter-Glo reagent into each well (at 1:1 to culture medium). Then place the plates at room temperature for 30 min followed by reading on EnVision.
4.1 Inhibition activity is calculated following the formula below:
% Inhibition=100×(LumHC−LumSample)/(LumHC−LumLC) • where HC is obtained from cells treated with 0.1% DMSO only; and LC is obtained from culture medium only.
4.2 2. Calculate the IC50 by fitting the Curve using Xlfit (v5.3.1.3), equation 201.
Y=Bottom+(Top−Bottom)/(1+10^((Log IC50−X)*HillSlope))

[4] = target: T4, EGFR exon 20 ASV Ins V769_D770 (Ba/F3 cells) (Homo sapiens, UniProt P00533, INS769ASV); assay: Inhibitor activity on EGFR-dependent cell growth (CellTiter-Glo, 72 h), Ba/F3 EGFR exon 20 ASV Ins; conditions: read-out: BaF3 ASV IC50
T4 construct: expressed in transfected cells; host or cells: Ba/F3 (murine pro-B cells), retroviral transduction, puromycin selection, IL3-independent pool
T4 sequence (P00533 with tags, fused parts or gaps INS769ASV): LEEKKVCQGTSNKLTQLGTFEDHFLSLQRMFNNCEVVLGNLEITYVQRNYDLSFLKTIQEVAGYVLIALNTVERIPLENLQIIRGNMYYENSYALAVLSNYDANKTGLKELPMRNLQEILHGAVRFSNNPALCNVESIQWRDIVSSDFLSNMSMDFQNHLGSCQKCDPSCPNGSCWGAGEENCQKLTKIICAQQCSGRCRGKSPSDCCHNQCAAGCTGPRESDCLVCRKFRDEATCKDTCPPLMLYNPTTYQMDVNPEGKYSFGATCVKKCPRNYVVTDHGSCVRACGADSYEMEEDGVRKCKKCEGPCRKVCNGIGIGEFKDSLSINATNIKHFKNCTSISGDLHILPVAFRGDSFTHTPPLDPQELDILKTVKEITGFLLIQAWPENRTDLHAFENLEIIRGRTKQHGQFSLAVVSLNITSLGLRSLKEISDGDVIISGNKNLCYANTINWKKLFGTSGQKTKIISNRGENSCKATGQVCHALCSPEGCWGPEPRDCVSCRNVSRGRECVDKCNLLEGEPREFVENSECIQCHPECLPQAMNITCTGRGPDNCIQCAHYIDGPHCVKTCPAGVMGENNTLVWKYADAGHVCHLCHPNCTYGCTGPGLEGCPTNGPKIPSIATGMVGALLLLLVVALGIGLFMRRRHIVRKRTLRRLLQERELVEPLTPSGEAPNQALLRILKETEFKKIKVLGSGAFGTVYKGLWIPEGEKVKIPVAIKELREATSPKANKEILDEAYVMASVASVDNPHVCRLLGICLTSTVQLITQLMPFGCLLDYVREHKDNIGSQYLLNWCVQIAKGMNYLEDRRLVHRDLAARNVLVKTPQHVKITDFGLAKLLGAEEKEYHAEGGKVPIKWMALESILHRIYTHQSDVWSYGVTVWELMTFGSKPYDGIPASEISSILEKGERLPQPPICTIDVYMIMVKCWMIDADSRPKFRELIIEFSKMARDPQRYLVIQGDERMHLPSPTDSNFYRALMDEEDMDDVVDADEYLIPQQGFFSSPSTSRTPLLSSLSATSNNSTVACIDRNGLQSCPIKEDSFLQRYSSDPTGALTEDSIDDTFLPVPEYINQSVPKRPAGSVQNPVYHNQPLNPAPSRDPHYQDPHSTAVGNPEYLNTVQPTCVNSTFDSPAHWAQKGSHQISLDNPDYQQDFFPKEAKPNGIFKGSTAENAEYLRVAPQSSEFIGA
In short: as §2

[5] = target: T1, EGFR L858R (Ba/F3 cells); assay: Inhibitor activity on EGFR phosphorylation (pEGFR AlphaLISA, 2 h), Ba/F3 EGFR L858R
Source text: (§7) Example B. Inhibitor Activity on EGFR phosphorylation (pEGFR)
(§8) EGFR mutant Ba/F3 cells were generated by transduction with retrovirus containing vectors expressing EGFR L858R, EGFR exon 19del, EGFR L858R/C797S, EGFR exon 20 NPG Ins D770_N771, EGFR exon 20 ASV Ins V769_D770, or EGFR exon 20 SVD Ins D770_N771 genes along with a puromycin selection marker. Transduced cells are selected with puromycin for 7 days and are then be transferred into culture media without Interleukin 3 (IL3). Surviving cells are confirmed to express EGFR by Western blot and maintained as a pool. CUTO14 cells were obtained from Dr. Robert C. Doebele at the University of Colorado. The IC50 date are included in Table 6 and Table 7.
as §3
(§9) 1.2 Cells are diluted with culture medium to the desired density and 40 μL of cell suspension is added into each well of 384-well cell culture plate and the seeding density is 50K cells/well (Ba/F3) or 12.5K cells/well (CUTO14).
as §4, §5, §6
(§10) 2.3 Transfer 5 nL of diluted compound from compound source plate into the cell plate.
(§11) 2.4 After compound treatment for 2 hours, perform pEGFR detection by AlphaLISA for compound treatment plates as described in “Detection” section.
(§12) 3 Detection by pEGFR AlphaLISA (Perkin-Elmer)
(§13) 3.1 Plates are removed from incubators and equilibrated at room temperature for 10 minutes, and media was removed
(§14) 3.2 10 μL of lysis buffer is added and plates shaken at 600 rpm for 1 hr.
(§15) 3.3 Prepare acceptor mix just before use and dispense 5 μL of acceptor mix to all the wells. Shake 350 rpm for Ihr in the dark
(§16) 3.4 Prepare donor mix under low light conditions prior to use. Dispense 5 μL of donor mix to all the wells. Mix well on the shaker, seal and wrap in aluminum foil and incubate 1.5 hrs at room temperature in the dark
(§17) 3.5 Transfer 18.5 μL mixture to OptiPlate 384, and read using an Envision. The IC50 date were included in Table 6 and Table 7.

[6] = target: T5, EGFR exon 20 FQEA Ins A763_V764 (Ba/F3 cells) (Homo sapiens, UniProt P00533, INS763FQEA); assay: Inhibitor activity on EGFR-dependent cell growth (CellTiter-Glo, 72 h), Ba/F3 EGFR exon 20 FQEA Ins; conditions: read-out: BaF3 FQEA IC50
T5 construct: expressed in transfected cells; host or cells: Ba/F3 (murine pro-B cells), retroviral transduction, puromycin selection, IL3-independent pool
In short: as §1

[7] = target: T6, EGFR exon 19del (Ba/F3 cells) (Homo sapiens, UniProt P00533); assay: Inhibitor activity on EGFR-dependent cell growth (CellTiter-Glo, 72 h), Ba/F3 EGFR exon 19del; conditions: Ba/F3 EGFR exon 19del cell growth, read-out: BaF3 Del19 IC50
In short: as §1

[8] = target: T7, EGFR WT (Ba/F3 cells) (Homo sapiens, UniProt P00533); assay: Inhibitor activity on EGFR-dependent cell growth (CellTiter-Glo, 72 h), Ba/F3 EGFR WT; conditions: read-out: BaF3 WT IC50
T7 construct: expressed in transfected cells; host or cells: Ba/F3 (murine pro-B cells), retroviral transduction, puromycin selection, maintained with EGF
T7 sequence (P00533 25-1210): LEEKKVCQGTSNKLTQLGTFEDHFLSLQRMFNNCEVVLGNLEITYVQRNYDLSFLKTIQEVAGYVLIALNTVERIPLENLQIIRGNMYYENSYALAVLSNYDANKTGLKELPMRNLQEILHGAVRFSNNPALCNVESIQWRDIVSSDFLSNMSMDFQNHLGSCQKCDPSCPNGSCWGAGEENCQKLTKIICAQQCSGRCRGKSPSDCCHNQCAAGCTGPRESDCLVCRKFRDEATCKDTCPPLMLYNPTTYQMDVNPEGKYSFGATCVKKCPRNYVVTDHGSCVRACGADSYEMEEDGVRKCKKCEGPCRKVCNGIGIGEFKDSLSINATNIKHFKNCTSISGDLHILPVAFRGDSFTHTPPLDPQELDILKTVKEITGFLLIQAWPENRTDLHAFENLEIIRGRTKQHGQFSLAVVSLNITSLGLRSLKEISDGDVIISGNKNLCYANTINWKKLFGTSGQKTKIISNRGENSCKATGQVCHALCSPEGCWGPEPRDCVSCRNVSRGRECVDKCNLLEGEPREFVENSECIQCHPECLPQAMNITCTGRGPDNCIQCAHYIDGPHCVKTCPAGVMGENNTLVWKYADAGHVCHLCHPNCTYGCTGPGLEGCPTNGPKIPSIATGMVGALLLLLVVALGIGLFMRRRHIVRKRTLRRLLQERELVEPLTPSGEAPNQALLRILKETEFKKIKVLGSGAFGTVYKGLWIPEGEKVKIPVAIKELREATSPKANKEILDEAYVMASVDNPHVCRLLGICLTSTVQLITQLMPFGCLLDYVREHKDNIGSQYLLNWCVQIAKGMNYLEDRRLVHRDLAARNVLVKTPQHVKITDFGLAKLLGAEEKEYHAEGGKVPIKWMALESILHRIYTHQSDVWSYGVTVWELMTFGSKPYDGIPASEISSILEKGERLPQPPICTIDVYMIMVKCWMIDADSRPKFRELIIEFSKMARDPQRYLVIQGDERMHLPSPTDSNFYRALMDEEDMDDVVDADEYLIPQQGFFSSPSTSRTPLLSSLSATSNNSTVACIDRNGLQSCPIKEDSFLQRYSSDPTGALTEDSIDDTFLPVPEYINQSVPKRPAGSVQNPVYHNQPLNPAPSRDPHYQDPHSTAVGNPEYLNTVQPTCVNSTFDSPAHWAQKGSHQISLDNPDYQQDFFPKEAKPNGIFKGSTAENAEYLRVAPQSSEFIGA
In short: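 This growth assay used Ba/F3 cells that depend on wild-type EGFR and are kept in EGF without IL3. Compounds were made up as 10 mM DMSO stocks and diluted 3-fold over 10 points. 120 nL went onto 600 cells/well. After 72 hours, 40 μL CellTiter-Glo was added and luminescence read on EnVision after 30 min.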

[9] = target: T3, EGFR L858R/C797S (Ba/F3 cells); assay: Inhibitor activity on EGFR phosphorylation (pEGFR AlphaLISA, 2 h), Ba/F3 EGFR L858R/C797S
Source text: as §7, §8, §3, §9, §4, §5, §6, §10, §11, §12, §13, §14, §15, §16, §17

[10] = target: T6, EGFR exon 19del (Ba/F3 cells); assay: Inhibitor activity on EGFR phosphorylation (pEGFR AlphaLISA, 2 h), Ba/F3 EGFR exon 19del; conditions: read-out: Del19 IC50 (pEGFR)
Source text: as §7, §8, §3, §9, §4, §5, §6, §10, §11, §12, §13, §14, §15, §16, §17

[11] = target: EGFR (CUTO14 cells) (Homo sapiens, UniProt P00533); assay: Inhibitor activity on EGFR phosphorylation (pEGFR AlphaLISA, 2 h), CUTO14 cells
In short: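 Compound treated for 2 h in IL3-withdrawn Ba/F3 cells carrying mutant EGFR (50K/well) or CUTO14 (12.5K/well); lysate pEGFR by AlphaLISA gave the IC50.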

[12] = target: T8, EGFR exon 20 NPG Ins D770_N771 (Ba/F3 cells) (Homo sapiens, UniProt P00533, INS770NPG); assay: Inhibitor activity on EGFR-dependent cell growth (CellTiter-Glo, 72 h), Ba/F3 EGFR exon 20 NPG Ins; conditions: read-out: BaF3 NPG IC50
T8 construct: expressed in transfected cells; host or cells: Ba/F3 (murine pro-B cells), retroviral transduction, puromycin selection, IL3-independent pool
In short: as §2

IC50 [1] [nM]	IC50 [2] [nM]	IC50 [3] [nM]	IC50 [4] [nM]	IC50 [5] [nM]	IC50 [6] [nM]	IC50 [7] [nM]	IC50 [8] [nM]	IC50 [9] [nM]	IC50 [10] [nM]	IC50 [11] [nM]	IC50 [12] [nM]	Structure (SMILES)
< 100	< 100	< 100	< 100	< 100	< 100	< 100	100 to 1000	< 100	< 100			COc1ncc2nccc(-c3[nH]c4c(c3Nc3cccc(F)c3OC)C(=O)NCC4)c2n1 [compound 409]
< 100	< 100	< 100	< 100	< 100	< 100	< 100	100 to 1000	< 100	< 100			COc1c(Cl)cccc1Nc1c(-c2ccnc3ccc(OCC(F)F)nc23)[nH]c2c1C(=O)NCC2 [compound 733, 3-[(3-chloro-2-methoxyphenyl)amino]-2-[6-(2,2-difluoroethoxy)-1,5-naphthyridin-4-yl]-1H,5H,6H,7H-pyrrolo[3,2-c]pyridin-4-one]
< 100	< 100	< 100	100 to 1000	< 100	100 to 1000	< 100	> 1000	< 100	< 100			COc1c(Cl)cccc1Nc1c(-c2ccncc2F)[nH]c2c1C(=O)NC[C@@]21CCN(CC(F)F)C1 [compound 822]
< 100	100 to 1000	< 100	100 to 1000	< 100	100 to 1000	< 100	> 1000	< 100	< 100			COc1c(Cl)cccc1Nc1c(-c2ccncc2F)[nH]c2c1C(=O)NC[C@@H]2CC(F)F [Compound 819, (7S)-3-[(3-chloro-2-methoxyphenyl)amino]-7-(2,2-difluoroethyl)-2-(3-fluoropyridin-4-yl)-1H,5H,6H,7H-pyrrolo[3,2-c]pyridin-4-one]
< 100	< 100	< 100	< 100			< 100	100 to 1000	< 100		< 100	< 100	COc1c(F)cccc1Nc1c(-c2ccnc(C)n2)[nH]c2c(C[C@@H]3COCCO3)c[nH]c(=O)c12 [compound 658]

Second part, the compound before the results:

Structure (SMILES)	IC50 [1] [nM]	IC50 [2] [nM]	IC50 [3] [nM]	IC50 [4] [nM]	IC50 [5] [nM]	IC50 [6] [nM]	IC50 [7] [nM]	IC50 [8] [nM]	IC50 [9] [nM]	IC50 [10] [nM]	IC50 [11] [nM]	IC50 [12] [nM]
COc1c(F)cccc1Nc1c(-c2ccnc3ccc(C)nc23)[nH]c2c1C(=O)NCC2 [Compound 809, 3-[(3-fluoro-2-methoxyphenyl)amino]-2-(6-methyl-1,5-naphthyridin-4-yl)-1H,5H,6H,7H-pyrrolo[3,2-c]pyridin-4-one]	< 100	< 100	< 100	< 100	< 100	< 100	< 100	100 to 1000	< 100	< 100		
COCC[C@H]1CNC(=O)c2c1[nH]c(-c1ccnc(C)n1)c2Nc1cccc(F)c1OC [453b]	< 100	< 100	< 100	< 100			< 100	100 to 1000	< 100		< 100	< 100
COc1ncc2nccc(-c3[nH]c4c(c3Nc3cccc(F)c3C)C(=O)NCC4)c2n1 [Compound 794, 3-[(3-fluoro-2-methylphenyl)amino]-2-[2-methoxypyrido[3,2-d]pyrimidin-8-yl]-1H,5H,6H,7H-pyrrolo[3,2-c]pyridin-4-one]	< 100	< 100	< 100	< 100	< 100	< 100	< 100	100 to 1000	< 100	< 100		
COCC[C@@H]1CNC(=O)c2c1[nH]c(-c1ccncn1)c2Nc1cccc(F)c1OC [Compound 447a]	< 100	< 100	< 100	< 100	< 100	< 100	< 100	100 to 1000	< 100	< 100		
COCC[C@H]1CNC(=O)c2c1[nH]c(-c1ccncn1)c2Nc1cccc(Cl)c1OC [445b]	< 100	100 to 1000	< 100	100 to 1000	< 100	100 to 1000	< 100	> 1000	< 100	< 100		
